Experiment [1] concerns the target T1, GSK3B (Homo sapiens, UniProt P49841). Put plainly: In vitro enzymatic activity assay, GSK3β. The format is biochemical. Also on record: Full length human GSK3α or GSK3B expressed as N-terminal GST fusion proteins; GST (N); purchased Carna Biosciences (Japan); host or cells: baculovirus host. The settings on record: 1.0 mM ATP, 1.0 μM peptide substrate, 120 min, 25° C, read-out: Enzyme GSK3β (IC50).

Experiment [2] concerns the target T1, GSK3B. Put plainly: NanoBRET cellular target engagement assay, Nanoluc-GSK3B in HEK293 cells. The settings on record: NanoBRET GSK3β IC50, HEK293 cells, tracer K-8, 2 hours, 37° C. The format is cell-based. Also on record: expressed in transfected cells. Background: BRET reads energy transfer from a luciferase to a nearby fluorophore.
In a further experiment the target is T2, human GSK3α (Homo sapiens, UniProt P49840).
T2 construct: Full length human GSK3α or GSK3B expressed as N-terminal GST fusion proteins; GST (N); purchased Carna Biosciences (Japan); host or cells: baculovirus host
T2 sequence (P49840 whole entry, the tested form may be a part): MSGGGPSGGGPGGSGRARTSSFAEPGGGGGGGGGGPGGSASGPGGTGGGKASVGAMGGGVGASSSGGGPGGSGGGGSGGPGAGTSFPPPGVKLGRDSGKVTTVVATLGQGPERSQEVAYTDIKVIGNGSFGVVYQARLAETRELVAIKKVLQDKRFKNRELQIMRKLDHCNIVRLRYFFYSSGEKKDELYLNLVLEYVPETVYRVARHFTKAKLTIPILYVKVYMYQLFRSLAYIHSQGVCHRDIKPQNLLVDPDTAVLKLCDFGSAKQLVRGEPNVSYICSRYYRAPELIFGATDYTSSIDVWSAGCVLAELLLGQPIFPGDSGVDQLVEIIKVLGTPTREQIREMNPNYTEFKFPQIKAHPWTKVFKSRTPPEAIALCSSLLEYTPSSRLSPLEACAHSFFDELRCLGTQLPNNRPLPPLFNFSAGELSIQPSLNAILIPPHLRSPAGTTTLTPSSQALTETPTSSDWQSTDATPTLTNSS
Put plainly: In vitro enzymatic activity assay, GSK3α. The experiment is classed as biochemical. The settings on record: 1.0 mM ATP, 1.0 μM peptide substrate, 120 min, 25° C, read-out: Enzyme GSK3α (IC50).

Another experiment has as its target T3, GSK3A (Homo sapiens, UniProt P49840).
T3 construct: expressed in transfected cells
Put plainly: NanoBRET cellular target engagement assay, Nanoluc-GSK3A in HEK293 cells. The format is cell-based. The settings on record: NanoBRET GSK3α IC50, HEK293 cells, tracer K-8, 2 hours, 37° C.

The structures appear in SMILES notation. pIC50: −log10 of the molar value.

T3 sequence (P49840 whole entry): as the sequence (P49840 whole entry, the tested form may be a part) above
T1 sequence (P49841 whole entry, the tested form may be a part): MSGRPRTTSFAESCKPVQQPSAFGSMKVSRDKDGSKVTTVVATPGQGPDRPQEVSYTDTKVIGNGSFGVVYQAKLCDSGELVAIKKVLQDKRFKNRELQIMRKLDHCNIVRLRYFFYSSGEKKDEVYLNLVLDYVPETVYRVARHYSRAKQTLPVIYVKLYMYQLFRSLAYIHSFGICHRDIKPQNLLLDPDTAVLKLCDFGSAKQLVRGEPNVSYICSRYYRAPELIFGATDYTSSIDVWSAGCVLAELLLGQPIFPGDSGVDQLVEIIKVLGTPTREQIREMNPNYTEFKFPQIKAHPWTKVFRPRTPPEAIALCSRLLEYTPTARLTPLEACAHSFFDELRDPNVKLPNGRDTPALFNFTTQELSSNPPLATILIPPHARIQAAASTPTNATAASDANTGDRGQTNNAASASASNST

With `CNC(COC)c1cncc(NC(=O)c2c(N)ncn(-c3c(Cl)cc(C(F)(F)F)cc3Cl)c2=O)c1` (single isomer, unassigned) [Example 121, (R)-4-amino-1-(2,6-dichloro-4-(trifluoromethyl)phenyl)-N-(5-(2-methoxy-1-(methylamino)ethyl)pyridin-3-yl)-6-oxo-1,6-dihydropyrimidine-5-carboxamide or (S)-4-amino-1-(2,6-dichloro-4-(trifluoromethyl)phenyl)-N-(5-(2-methoxy-1-(methylamino)ethyl)pyridin-3-yl)-6-oxo-1,6-dihydropyrimidine-5-carboxamide], the pIC50 at GSK3B [1] is 6.51; against GSK3B [2] it was 6.40; at human GSK3α it was 8.42; against GSK3A, 8.47.

For `CNC(COC)c1cncc(NC(=O)c2c(N)ncn(-c3c(Cl)cc(C(F)(F)F)cc3Cl)c2=O)c1` (single isomer, unassigned) [Example 122, (R)-4-amino-1-(2,6-dichloro-4-(trifluoromethyl)phenyl)-N-(5-(2-methoxy-1-(methylamino)ethyl)pyridin-3-yl)-6-oxo-1,6-dihydropyrimidine-5-carboxamide or (S)-4-amino-1-(2,6-dichloro-4-(trifluoromethyl)phenyl)-N-(5-(2-methoxy-1-(methylamino)ethyl)pyridin-3-yl)-6-oxo-1,6-dihydropyrimidine-5-carboxamide], the pIC50 at GSK3B [1] is 6.49; against GSK3B [2], 6.50; at human GSK3α, 8.28; against GSK3A, 8.30.

Take `CCCOc1cc(C)c(-n2cnc(N)c(C(=O)Nc3cncc(C(C)N)c3)c2=O)c(C)c1` (single isomer, unassigned) [Example 126, (R)-4-amino-N-(5-(1-aminoethyl)pyridin-3-yl)-1-(2,6-dimethyl-4-propoxyphenyl)-6-oxo-1,6-dihydropyrimidine-5-carboxamide or (S)-4-amino-N-(5-(1-aminoethyl)pyridin-3-yl)-1-(2,6-dimethyl-4-propoxyphenyl)-6-oxo-1,6-dihydropyrimidine-5-carboxamide]: the pIC50 on GSK3B [1] was 6.15; at GSK3B [2] it was 6.30; at human GSK3α, 7.83; at GSK3A it was 8.10.

Regarding `CCC(N)c1cncc(NC(=O)c2c(N)ncn(-c3c(C)cc(C(F)F)cc3C)c2=O)c1` (single isomer, unassigned) [Example 128, (R)-4-amino-N-(5-(1-aminopropyl)pyridin-3-yl)-1-(4-(difluoromethyl)-2,6-dimethylphenyl)-6-oxo-1,6-dihydropyrimidine-5-carboxamide or (S)-4-amino-N-(5-(1-aminopropyl)pyridin-3-yl)-1-(4-(difluoromethyl)-2,6-dimethylphenyl)-6-oxo-1,6-dihydropyrimidine-5-carboxamide], the pIC50 at GSK3B [1] was 5.93; against GSK3B [2], 6.26; at human GSK3α, 7.72; against GSK3A it was 8.11.

For the molecule `CCOCc1cc(Cl)c(-n2cnc(N)c(C(=O)Nc3cncc(C(N)CC)c3)c2=O)c(Cl)c1` (single isomer, unassigned) [Example 129, (R)-4-amino-N-(5-(1-aminopropyl)pyridin-3-yl)-1-(2,6-dichloro-4-(ethoxymethyl)phenyl)-6-oxo-1,6-dihydropyrimidine-5-carboxamide or (S)-4-amino-N-(5-(1-aminopropyl)pyridin-3-yl)-1-(2,6-dichloro-4-(ethoxymethyl)phenyl)-6-oxo-1,6-dihydropyrimidine-5-carboxamide], the pIC50 was 6.98 at GSK3B [1], 7.09 on GSK3B [2], 8.68 on human GSK3α and 8.92 at GSK3A.

`CCOCc1cc(C)c(-n2cnc(N)c(C(=O)Nc3cncc(C(C)N)c3)c2=O)c(C)c1` (single isomer, unassigned) [Example 130, (R)-4-amino-N-(5-(1-aminoethyl)pyridin-3-yl)-1-(4-(ethoxymethyl)-2,6-dimethylphenyl)-6-oxo-1,6-dihydropyrimidine-5-carboxamide or (S)-4-amino-N-(5-(1-aminoethyl)pyridin-3-yl)-1-(4-(ethoxymethyl)-2,6-dimethylphenyl)-6-oxo-1,6-dihydropyrimidine-5-carboxamide]: the negative logarithm of the IC50 (pIC50) on GSK3B [1] is 6.23; against GSK3B [2] it was 6.34; on human GSK3α it was 7.87; on GSK3A, 8.28.

Consider `CCOCc1cc(C)c(-n2cnc(N)c(C(=O)Nc3cncc(C4CCCCCN4)c3)c2=O)c(C)c1` (single isomer, unassigned) [Example 132, (R)-4-amino-N-(5-(azepan-2-yl)pyridin-3-yl)-1-(4-(ethoxymethyl)-2,6-dimethylphenyl)-6-oxo-1,6-dihydropyrimidine-5-carboxamide or (S)-4-amino-N-(5-(azepan-2-yl)pyridin-3-yl)-1-(4-(ethoxymethyl)-2,6-dimethylphenyl)-6-oxo-1,6-dihydropyrimidine-5-carboxamide], for which the pIC50 on GSK3B [1] was 6.64; against GSK3B [2], 6.74; at human GSK3α, 8.26; on GSK3A it was 8.70.

Turning to `CCOc1cc(Cl)c(-n2cnc(N)c(C(=O)Nc3cncc(C(N)COC)c3)c2=O)c(Cl)c1` (single isomer, unassigned) [Example 134, (R)-4-amino-N-(5-(1-amino-2-methoxyethyl)pyridin-3-yl)-1-(2,6-dichloro-4-ethoxyphenyl)-6-oxo-1,6-dihydropyrimidine-5-carboxamide or (S)-4-amino-N-(5-(1-amino-2-methoxyethyl)pyridin-3-yl)-1-(2,6-dichloro-4-ethoxyphenyl)-6-oxo-1,6-dihydropyrimidine-5-carboxamide], the pIC50 on GSK3B [1] is 6.67; against GSK3B [2], 6.69; at human GSK3α, 8.47; against GSK3A, 8.49.

On to `CCOc1cc(Cl)c(-n2cnc(N)c(C(=O)Nc3cncc(C4COCCCN4)c3)c2=O)c(Cl)c1` (single isomer, unassigned) [Example 135, (R)-N-(5-(1,4-oxazepan-3-yl)pyridin-3-yl)-4-amino-1-(2,6-dichloro-4-ethoxyphenyl)-6-oxo-1,6-dihydropyrimidine-5-carboxamide or (S)-N-(5-(1,4-oxazepan-3-yl)pyridin-3-yl)-4-amino-1-(2,6-dichloro-4-ethoxyphenyl)-6-oxo-1,6-dihydropyrimidine-5-carboxamide], for which the pIC50 at GSK3B [1] is 6.73; against GSK3B [2], 6.58; on human GSK3α, 8.49; on GSK3A, 8.35.

As for `CCOc1cc(Cl)c(-n2cnc(N)c(C(=O)Nc3cncc(C(N)CC)c3)c2=O)c(Cl)c1` (single isomer, unassigned) [Example 136, (R)-4-amino-N-(5-(1-aminopropyl)pyridin-3-yl)-1-(2,6-dichloro-4-ethoxyphenyl)-6-oxo-1,6-dihydropyrimidine-5-carboxamide or (S)-4-amino-N-(5-(1-aminopropyl)pyridin-3-yl)-1-(2,6-dichloro-4-ethoxyphenyl)-6-oxo-1,6-dihydropyrimidine-5-carboxamide], the pIC50 was 6.69 at GSK3B [1], 6.93 against GSK3B [2], 8.54 on human GSK3α and 8.74 against GSK3A.

Regarding `CCOc1cc(Cl)c(-n2cnc(N)c(C(=O)Nc3cncc(C(C)N)c3)c2=O)c(Cl)c1` (single isomer, unassigned) [Example 137, (R)-4-amino-N-(5-(1-aminoethyl)pyridin-3-yl)-1-(2,6-dichloro-4-ethoxyphenyl)-6-oxo-1,6-dihydropyrimidine-5-carboxamide or (S)-4-amino-N-(5-(1-aminoethyl)pyridin-3-yl)-1-(2,6-dichloro-4-ethoxyphenyl)-6-oxo-1,6-dihydropyrimidine-5-carboxamide], the pIC50 was 6.89 on GSK3B [1], 7.06 against GSK3B [2], 8.72 at human GSK3α and 8.77 against GSK3A.

Regarding `CCOc1cc(Cl)c(-n2cnc(N)c(C(=O)Nc3cncc(C(N)C4CC4)c3)c2=O)c(Cl)c1` (single isomer, unassigned) [Example 139, (R)-4-amino-N-(5-(amino(cyclopropyl)methyl)pyridin-3-yl)-1-(2,6-dichloro-4-ethoxyphenyl)-6-oxo-1,6-dihydropyrimidine-5-carboxamide or (S)-4-amino-N-(5-(amino(cyclopropyl)methyl)pyridin-3-yl)-1-(2,6-dichloro-4-ethoxyphenyl)-6-oxo-1,6-dihydropyrimidine-5-carboxamide], the pIC50 on GSK3B [1] was 6.25; at GSK3B [2], 6.55; at human GSK3α, 7.96; against GSK3A it was 8.29.

Consider `CCOCC(N)c1cncc(NC(=O)c2c(N)ncn(-c3c(Cl)cc(OCC)cc3Cl)c2=O)c1` (single isomer, unassigned) [Example 140, (R)-4-amino-N-(5-(1-amino-2-ethoxyethyl)pyridin-3-yl)-1-(2,6-dichloro-4-ethoxyphenyl)-6-oxo-1,6-dihydropyrimidine-5-carboxamide or (S)-4-amino-N-(5-(1-amino-2-ethoxyethyl)pyridin-3-yl)-1-(2,6-dichloro-4-ethoxyphenyl)-6-oxo-1,6-dihydropyrimidine-5-carboxamide], for which the pIC50 on GSK3B [1] is 5.91; on GSK3B [2] it was 6.21; at human GSK3α, 7.62; against GSK3A it was 8.04.

The term pIC50 denotes the IC50 on a negative log10 scale, so that one unit is a factor of ten.

For the origin of these results see patent US20260327191A1, “GSK3a INHIBITORS AND METHODS OF USE THEREOF” (Blueprint Medicines Corporation, priority 2023, published 2026).
